Reference: paper PMC3048208 (British Journal of Cancer, 2011)
Where a name gives a salt, the structure may show the parent alone. Marks after values point to notes of the source that are not given here.

Tested on: patients with advanced solid tumours
Test: Phase I safety: DLT and adverse events (CTCAE v3.0)
[1] = All grades, level 1, 10 mg 3 days every 2 weeks, 3 patients
[2] = All grades, level 2, 10 mg, 6 patients
[3] = All grades, level 3, 20 mg, 6 patients
[4] = All grades, level 4, 30 mg, 4 patients
[5] = All grades, level 5, 50 mg, 4 patients
[6] = All grades, level 5.5, 60 mg, 7 patients
[7] = All grades, level 6, 70 mg, 6 patients
[8] = All grades, level 7, 90 mg, 2 patients
[9] = Grades 3/4, level 1, 10 mg 3 days every 2 weeks, 3 patients

CCCCc1nc2cc(/C=C/C(=O)NO)ccc2n1CCN(CC)CC [SB939, 3-[2-butyl-1-(2-diethylaminoethyl)-1H-benzoimidazol-5-yl]-N-hydroxyacrylami-hydrochloride]
6: Anaemia, no. of patients [2] | Alkaline phophatase (raised), no. of patients [6] | Fatigue, no. of patients [6] | Lymphopenia, no. of patients [6] | Anaemia, no. of patients [7] | Thrombocytopenia, no. of patients [7]
2 of 2: Dose reductions, patients (90 mg)
1: AST (raised), no. of patients [1] | Alkaline phophatase (raised), no. of patients [1] | Leukopenia, no. of patients [1] | Mucositis, no. of patients [1] | Neutropenia, no. of patients [1] | ALT (raised), no. of patients [2] | Bilirubin (raised), no. of patients [2] | Creatinine (raised), no. of patients [2] | Diarrhoea, no. of patients [2] | Mucositis, no. of patients [2] | Neutropenia, no. of patients [2] | QT prolongation, no. of patients [2] | Altered taste, no. of patients [3] | Bilirubin (raised), no. of patients [3] | CPK, no. of patients [3] | Creatinine (raised), no. of patients [3] | Diarrhoea, no. of patients [3] | Leukopenia, no. of patients [3] | Myositis, no. of patients [3] | Neutropenia, no. of patients [3] | Syncope, no. of patients [3] | Thrombocytopenia, no. of patients [3] | Vomiting, no. of patients [3] | AST (raised), no. of patients [4] | Bilirubin (raised), no. of patients [4] | CPK, no. of patients [4] | Diarrhoea, no. of patients [4] | Fatigue, no. of patients [4] | Anorexia, no. of patients [5] | Leukopenia, no. of patients [5] | Neutropenia, no. of patients [5] | Altered taste, no. of patients [6] | Cardiac arrythmia other, no. of patients [6] | QT prolongation, no. of patients [6] | ALT (raised), no. of patients [7] | CPK, no. of patients [7] | Mucositis, no. of patients [7] | QT prolongation, no. of patients [7] | Alkaline phophatase (raised), no. of patients [8] | Altered taste, no. of patients [8] | Anorexia, no. of patients [8] | Bilirubin (raised), no. of patients [8] | CPK, no. of patients [8] | Cardiac arrythmia other, no. of patients [8] | Cardiac dysfunction, no. of patients [8] | Cardiac ischaemia, no. of patients [8] | Leukopenia, no. of patients [8] | Neutropenia, no. of patients [8] | QT prolongation, no. of patients [8] | Supra ventricular arrythmia, no. of patients [8] | Ventricular arrythmias (PVCs), no. of patients [8] | Ventricular bigemini, no. of patients [8]
7: Anaemia, no. of patients [6]
4: Alkaline phophatase (raised), no. of patients [3] | Anaemia, no. of patients [4] | Anaemia, no. of patients [5] | Lymphopenia, no. of patients [5] | ALT (raised), no. of patients [6] | Anorexia, no. of patients [6] | Diarrhoea, no. of patients [6] | Vomiting, no. of patients [6] | Fatigue, no. of patients [7] | Lymphopenia, no. of patients [7] | Nausea, no. of patients [7]
2 of 6: Dose reductions, patients (70 mg)
two: Grade 3 ALT rise, no. of patients (60 mg)
2: Anaemia, no. of patients [1] | Fatigue, no. of patients [2] | Leukopenia, no. of patients [2] | Thrombocytopenia, no. of patients [2] | ALT (raised), no. of patients [3] | Anorexia, no. of patients [3] | Fatigue, no. of patients [3] | Lymphopenia, no. of patients [3] | Nausea, no. of patients [3] | ALT (raised), no. of patients [4] | Alkaline phophatase (raised), no. of patients [4] | Creatinine (raised), no. of patients [4] | Leukopenia, no. of patients [4] | Lymphopenia, no. of patients [4] | Neutropenia, no. of patients [4] | AST (raised), no. of patients [5] | Alkaline phophatase (raised), no. of patients [5] | Nausea, no. of patients [5] | Vomiting, no. of patients [5] | Bilirubin (raised), no. of patients [6] | Creatinine (raised), no. of patients [6] | AST (raised), no. of patients [7] | Creatinine (raised), no. of patients [7] | Vomiting, no. of patients [7] | ALT (raised), no. of patients [8] | AST (raised), no. of patients [8] | Anaemia, no. of patients [8] | Creatinine (raised), no. of patients [8] | Lymphopenia, no. of patients [8] | Nausea, no. of patients [8] | Thrombocytopenia, no. of patients [8]
1 ^c: Ventricular arrythmias (PVCs), no. of patients [2] | Ventricular bigemini, no. of patients [2]
5: Alkaline phophatase (raised), no. of patients [2] | Lymphopenia, no. of patients [2] | Anaemia, no. of patients [3] | AST (raised), no. of patients [6] | Leukopenia, no. of patients [6] | Nausea, no. of patients [6] | Neutropenia, no. of patients [6] | Thrombocytopenia, no. of patients [6]
2 ^c: Fatigue, no. of patients [8] | Vomiting, no. of patients [8]
0: ALT (raised), no. of patients [1] | Abdominal pain, no. of patients [1] | Altered taste, no. of patients [1] | Anorexia, no. of patients [1] | Bilirubin (raised), no. of patients [1] | Cardiac arrythmia other, no. of patients [1] | Cardiac dysfunction, no. of patients [1] | Cardiac ischaemia, no. of patients [1] | Constipation, no. of patients [1] | Creatinine (raised), no. of patients [1] | Diarrhoea, no. of patients [1] | Fatigue, no. of patients [1] | Lymphopenia, no. of patients [1] | Myositis, no. of patients [1] | Nausea, no. of patients [1] | QT prolongation, no. of patients [1] | Supra ventricular arrythmia, no. of patients [1] | Syncope, no. of patients [1] | Thrombocytopenia, no. of patients [1] | Ventricular arrythmias (PVCs), no. of patients [1] | Ventricular bigemini, no. of patients [1] | Vomiting, no. of patients [1] | Abdominal pain, no. of patients [2] | Altered taste, no. of patients [2] | Anorexia, no. of patients [2] | CPK, no. of patients [2] | Cardiac arrythmia other, no. of patients [2] | Cardiac dysfunction, no. of patients [2] | Cardiac ischaemia, no. of patients [2] | Constipation, no. of patients [2] | Myositis, no. of patients [2] | Nausea, no. of patients [2] | Supra ventricular arrythmia, no. of patients [2] | Syncope, no. of patients [2] | Vomiting, no. of patients [2] | Abdominal pain, no. of patients [3] | Cardiac arrythmia other, no. of patients [3] | Cardiac dysfunction, no. of patients [3] | Cardiac ischaemia, no. of patients [3] | Constipation, no. of patients [3] | Mucositis, no. of patients [3] | QT prolongation, no. of patients [3] | Supra ventricular arrythmia, no. of patients [3] | Ventricular arrythmias (PVCs), no. of patients [3] | Ventricular bigemini, no. of patients [3] | Abdominal pain, no. of patients [4] | Altered taste, no. of patients [4] | Anorexia, no. of patients [4] | Cardiac arrythmia other, no. of patients [4] | Cardiac dysfunction, no. of patients [4] | Cardiac ischaemia, no. of patients [4] | Constipation, no. of patients [4] | Mucositis, no. of patients [4] | Myositis, no. of patients [4] | Nausea, no. of patients [4] | QT prolongation, no. of patients [4] | Supra ventricular arrythmia, no. of patients [4] | Syncope, no. of patients [4] | Thrombocytopenia, no. of patients [4] | Ventricular arrythmias (PVCs), no. of patients [4] | Ventricular bigemini, no. of patients [4] | Vomiting, no. of patients [4] | ALT (raised), no. of patients [5] | Abdominal pain, no. of patients [5] | Altered taste, no. of patients [5] | Bilirubin (raised), no. of patients [5] | CPK, no. of patients [5] | Cardiac arrythmia other, no. of patients [5] | Cardiac dysfunction, no. of patients [5] | Cardiac ischaemia, no. of patients [5] | Constipation, no. of patients [5] | Creatinine (raised), no. of patients [5] | Diarrhoea, no. of patients [5] | Mucositis, no. of patients [5] | Myositis, no. of patients [5] | QT prolongation, no. of patients [5] | Supra ventricular arrythmia, no. of patients [5] | Syncope, no. of patients [5] | Thrombocytopenia, no. of patients [5] | Ventricular arrythmias (PVCs), no. of patients [5] | Ventricular bigemini, no. of patients [5] | Abdominal pain, no. of patients [6] | CPK, no. of patients [6] | Cardiac dysfunction, no. of patients [6] | Cardiac ischaemia, no. of patients [6] | Constipation, no. of patients [6] | Mucositis, no. of patients [6] | Myositis, no. of patients [6] | Supra ventricular arrythmia, no. of patients [6] | Syncope, no. of patients [6] | Ventricular arrythmias (PVCs), no. of patients [6] | Ventricular bigemini, no. of patients [6] | Abdominal pain, no. of patients [7] | Altered taste, no. of patients [7] | Bilirubin (raised), no. of patients [7] | Cardiac arrythmia other, no. of patients [7] | Cardiac dysfunction, no. of patients [7] | Cardiac ischaemia, no. of patients [7] | Constipation, no. of patients [7] | Diarrhoea, no. of patients [7] | Myositis, no. of patients [7] | Supra ventricular arrythmia, no. of patients [7] | Syncope, no. of patients [7] | Ventricular arrythmias (PVCs), no. of patients [7] | Ventricular bigemini, no. of patients [7] | Abdominal pain, no. of patients [8] | Constipation, no. of patients [8] | Diarrhoea, no. of patients [8] | Mucositis, no. of patients [8] | Myositis, no. of patients [8] | Syncope, no. of patients [8] | ALT (raised), no. of patients [9] | AST (raised), no. of patients [9] | Abdominal pain, no. of patients [9] | Alkaline phophatase (raised), no. of patients [9] | Altered taste, no. of patients [9] | Anaemia, no. of patients [9] | Anorexia, no. of patients [9] | Bilirubin (raised), no. of patients [9] | Cardiac arrythmia other, no. of patients [9] | Cardiac dysfunction, no. of patients [9] | Cardiac ischaemia, no. of patients [9] | Constipation, no. of patients [9] | Creatinine (raised), no. of patients [9] | Diarrhoea, no. of patients [9] | Fatigue, no. of patients [9] | Leukopenia, no. of patients [9] | Lymphopenia, no. of patients [9] | Mucositis, no. of patients [9]
3: Grade 2 raised AST and hyperbilirubinemia, no. of patients (60 mg) | AST (raised), no. of patients [2] | AST (raised), no. of patients [3] | Fatigue, no. of patients [5] | Alkaline phophatase (raised), no. of patients [7] | Anorexia, no. of patients [7] | Leukopenia, no. of patients [7] | Neutropenia, no. of patients [7]
